# From US10328128B2, “Treatment of infection by human enterovirus D68” (priority 2014, dated 2019)
# Where two headings read alike, the source gives them in different places.
# Tests used:
# [1] = tested on: EV-D68 strain USA-MO/18949; experiment: CPE inhibition assay in RD cells; assay type: cell-based, Human enterovirus D68; settings: read-out: Mean EC50 ± SD
# [2] = tested on: EV-D68 strain USA-IL/18956; experiment: CPE inhibition assay in RD cells; assay type: cell-based, Human enterovirus D68; settings: read-out: Mean EC50 ± SD
# [3] = tested on: EV-D68 1962 prototype strain (Fermon); experiment: CPE inhibition assay in RD cells; assay type: cell-based, Human enterovirus D68; settings: read-out: Mean EC50 ± SD
# [4] = tested on: EV-D68 strain USA-MO/18947; experiment: CPE inhibition assay in RD cells; assay type: cell-based, Human enterovirus D68; settings: read-out: Mean EC50 ± SD
# [5] = tested on: four EV-D68 strains; experiment: microbe, parasite or virus in culture; assay type: cell-based, Human enterovirus D68; settings: for activity against EV-D68 strains in words: highest concentration tested 10 μM; for EC50: read-out: EC50 values, range over all four EV-D68 strains
# [6] = typical fluoxetine dosing; cited from earlier work
# [7] = tested on: EV-D68 Fermon strain; experiment: CPE inhibition assay over a range of virus doses; assay type: cell-based, Human enterovirus D68; settings: Enterovirus D, EVD68; Fermon strain, 100-fold virus dose range, five half-log dilutions; upper end printed as >10 μM; data not shown; read-out: EC50 values over a range of virus doses
# Experimental: Antiviral activity was assessed in a homogeneous cell-based assay that measured inhibition of viral cytopathic effect in human rhabdomyosarcoma cells (RD; ATCC CCL-136). The viruses included three representative EV-D68 strains from the 2014 outbreak (USA-MO/18947, USA-MO/18949, USA-IL/18956) (Brown et al. 2014. Seven Strains of Enterovirus D68 Detected in the United States during the 2014 Severe Respiratory Disease Outbreak. Genome Announc 2:e01201-01214), as well as the 1962 prototype strain (Fermon) (Schieble et al. 1967. A probable new human picornavirus associated with respiratory diseases. Am J Epidemiol 85:297-310). For the CPE inhibition assay, half-log10 dilutions of drug compound (10 μM to 0.001 μM) were combined with 100 CCID50 (50% cell culture infectious dose) of virus and added to monolayers of RD cells (5000 cells per well) in 384-well, white, flat-bottom microplates. Plates were incubated at 33° C. and 5% CO2 for five days, and cell viability was assessed using ATPLite® (Perkin Elmer, Waltham, Mass.) by adding 15 μL of cell lysis buffer and then 15 μL of substrate solution, following the manufacturer's recommendations.
# In both studies, the methods were somewhat different from our approach. […] For the other compounds tested, similar EC50 values were observed across this same dose range. […]
# [8] = Sialidase activity with fluorogenic substrate 4-MU-NANA; assay type: biochemical; settings: 37° C.
# Experimental: The sialidase activity of DAS181 was measured using the fluorogenic substrate 4-methylumbelliferyl-N-acetyl-α-D-neuraminic acid (4-MU-NANA; Sigma). One unit of sialidase is defined as the amount of enzyme that releases 10 nmol of MU from 4-MU-NANA in 10 minutes at 37° C. (50 mM CH3COOH—NaOH buffer, pH 5.5) in a reaction that contains 20 nmol of 4-MU-NANA in a 0.2 ml volume (Potier et al., Anal. Biochem., 94:287-296, 1979). The specific activity of DAS181 was determined to be 1,300 U/mg protein (0.77 μg DAS181 protein per unit of activity).
# [9] = tested on: enterovirus D68 strains (EV-D68); experiment: DAS181 specific anti-viral assay, text summary over all strains and conditions; assay type: cell-based, Human enterovirus D68; settings: all conditions and all enterovirus strains tested
# Experimental: (§1) As shown in the Table 2, DAS181 was tested to assess antiviral activity of the compound using a cell-based assay, and using enterovirus D68 strains (EV-D68). In this assay, using four specific EV-D68 strains, the compound was added at different time-points to each of the strains. The three time conditions tested were: (i) DAS181 preincubated with cells for 24 h before virus infection; (ii) DAS181 added simultaneously with virus; and (iii) DAS181 added 4 h post-infection. Fermon, an original prototypic strain, was used as control.
# [10] = tested on: EV-D68 strain USA-IL/238139; experiment: DAS181 specific anti-viral assay, time of addition; assay type: cell-based, Human enterovirus D68; settings: read-out: DAS181 Mean EC50 ± SD
# Experimental: as §1
# [11] = tested on: EV-D68 strain USA-MO/238102; experiment: DAS181 specific anti-viral assay, time of addition; assay type: cell-based, Human enterovirus D68; settings: read-out: DAS181 Mean EC50 ± SD
# Experimental: as §1
# [12] = tested on: EV-D68 strain Fermon; experiment: DAS181 specific anti-viral assay, time of addition; assay type: cell-based, Human enterovirus D68; settings: read-out: DAS181 Mean EC50 ± SD
# Experimental: as §1
# [13] = tested on: EV-D68 strain USA-MO/238121; experiment: DAS181 specific anti-viral assay, time of addition; assay type: cell-based, Human enterovirus D68; settings: read-out: DAS181 Mean EC50 ± SD
# Experimental: as §1
# [14] = Enterovirus D, EVD68, RD, 120 h
# [15] = Enterovirus D, EVD68, 120 h, RD cells, 100 CCID50 virus, 33° C., five days, strain USA-MO/18949
# [16] = Enterovirus D, EVD68, 120 h, RD cells, 100 CCID50 virus, 33° C., five days, strain USA-IL/18956
# [17] = Enterovirus D, EVD68, 120 h, RD cells, 100 CCID50 virus, 33° C., five days, strain Fermon
# [18] = Enterovirus D, EVD68, 120 h, RD cells, 100 CCID50 virus, 33° C., five days, strain USA-MO/18947
# [19] = RD cells, 100 CCID50 virus, 33° C., five days, strain USA-MO/18949
# [20] = RD cells, 100 CCID50 virus, 33° C., five days, strain USA-IL/18956
# [21] = RD cells, 100 CCID50 virus, 33° C., five days, strain Fermon
# [22] = RD cells, 100 CCID50 virus, 33° C., five days, strain USA-MO/18947
# [23] = 24 hr preincubation before infection
# [24] = Drug addition 4 hr after infection
# [25] = No preincubation (added simultaneously with virus)
Molecule,"EC50 [1, 14] [nM]","EC50 [2, 14] [nM]","EC50 [3, 14] [nM]","EC50 [4, 14] [nM]","EC50 [1, 15] [nM]","EC50 [2, 16] [nM]","EC50 [3, 17] [nM]","EC50 [4, 18] [nM]",further results
NC12CC3CC(CC(C3)C1)C2 [Amantidine],> 10000,> 10000,> 10000,> 10000,,,,,
CCOC(=O)c1c(CSc2ccccc2)n(C)c2cc(Br)c(O)c(CN(C)C)c12 [Arbidol],> 10000,> 10000,> 10000,> 10000,,,,,
"NC(=O)c1nc(F)c[nH]c1=O [Favipiravir, favipiravir]",,,,,> 10000,> 10000,> 10000,> 10000,
"CNCCC(Oc1ccc(C(F)(F)F)cc1)c1ccccc1 (centres unmarked) [Fluoxetine, fluoxetine]",,,,,,,,,activity against EV-D68 strains in words ([5]; RD cells): significant activity; maximal plasma levels [6]: < 200 nM
COc1ccc(CC(C)NCC(O)c2ccc(O)c(NC=O)c2)cc1 (centres unmarked) [Formoterol furmarate],> 10000,> 10000,> 10000,> 10000,,,,,
"CCC(C)n1ncn(-c2ccc(N3CCN(c4ccc(OCC5COC(Cn6cncn6)(c6ccc(Cl)cc6Cl)O5)cc4)CC3)cc2)c1=O (centres unmarked) [Itraconazole, itraconazole]",,,,,> 10000,> 10000,> 10000,> 10000,activity against EV-D68 strains in words ([5]; RD cells): failed to inhibit; EC50 [7]: 290 to 10000 nM
"OC(c1cc(C(F)(F)F)nc2c(C(F)(F)F)cccc12)C1CCCCN1 (centres unmarked) [Mefloquine, mefloquine]",,,,,> 10000,> 10000,> 10000,> 10000,
"CC(=O)Oc1ccccc1C(=O)Nc1ncc([N+](=O)[O-])s1 [Nitazoxanide, nitazoxanide]",,,,,> 10000,> 10000,> 10000,> 10000,
CCOC(=O)C1=C[C@@H](OC(CC)CC)[C@H](NC(C)=O)[C@@H](N)C1 [Oseltamivir],> 10000,> 10000,> 10000,> 10000,,,,,
"COc1ccc(OCc2ccc(COc3c(Cl)cccc3Cl)cc2)c(Cl)c1 [Pocapavir, pocapavir]",,,,,,,,,"EC50 [1, 19]: > 10000 nM; activity against EV-D68 strains in words ([5]; RD cells): inactive; EC50 [2, 20]: > 10000 nM; EC50 [3, 21]: > 10000 nM; EC50 [4, 22]: > 10000 nM"
"CCOC(=O)/C=C/[C@H](C[C@@H]1CCNC1=O)NC(=O)[C@@H](CC(=O)[C@@H](NC(=O)c1cc(C)on1)C(C)C)Cc1ccc(F)cc1 [Rupintrivir, rupintrivir]",1.5 ± 3,3.7 ± 7,2 ± 0.5,4.6 ± 1.6,,,,,"EC50 ([5]; Enterovirus D, EVD68, RD): 1.5 to 5.1 nM"
C#CC[C@@H](C(=O)N[C@H](/C=C/C(=O)OCC)C[C@@H]1CCNC1=O)n1cccc(NC(=O)c2cc(C)on2)c1=O [V-7404],,,,,27 ± 8,24 ± 7,3.5 ± 0.6,26 ± 4,"EC50 ([5]; Enterovirus D, EVD68, RD): 1.5 to 5.1 nM"
DAS181: fusion protein of the catalytic domain of A. viscosus sialidase and a human amphiregulin GAG-binding anchoring domain (SEQ ID NOs: 15 and 16) (protein) MGDHPQATPAPAPDASTELPASMSQAQHLAANTATDNYRIPAITTAPNGDLLISYDERPKDNGNGGSDAPNPNHIVQRRSTDGGKTWSAPTYIHQGTETGKKVGYSDPSYVVDHQTGTIFNFHVKSYDQGWGGSRGGTDPENRGIIQAEVSTSTDNGWTWTHRTITADITKDKPWTARFAASGQGIQIQHGPHAGRLVQQYTIRTAGGAVQAVSVYSDDHGKTWQAGTPIGTGMDENKVVELSDGSLMLNSRASDGSGFRKVAHSTDGGQTWSEPVSDKNLPDSVDNAQIIRAFPNAAPDDPRAKVLLLSHSPNPRPWSRDRGTISMSCDDGASWTTSKVFHEPFVGYTTIAVQSDGSIGLLSEDAHNGADYGGIWYRNFTMNWLGEQCGQKPAKRKKKGGKNGKNRRNRKKKNPGDHPQATPAPAPDASTELPASMSQAQHLAANTATDNYRIPAITTAPNGDLLISYDERPKDNGNGGSDAPNPNHIVQRRSTDGGKTWSAPTYIHQGTETGKKVGYSDPSYVVDHQTGTIFNFHVKSYDQGWGGSRGGTDPENRGIIQAEVSTSTDNGWTWTHRTITADITKDKPWTARFAASGQGIQIQHGPHAGRLVQQYTIRTAGGAVQAVSVYSDDHGKTWQAGTPIGTGMDENKVVELSDGSLMLNSRASDGSGFRKVAHSTDGGQTWSEPVSDKNLPDSVDNAQIIRAFPNAAPDDPRAKVLLLSHSPNPRPWSRDRGTISMSCDDGASWTTSKVFHEPFVGYTTIAVQSDGSIGLLSEDAHNGADYGGIWYRNFTMNWLGEQCGQKPAKRKKKGGKNGKNRRNRKKKNP,,,,,,,,,"EC50 [1, 19]: 2.6 ± 1.2 nM; EC50 ([5]; RD cells, all four EV-D68 strains): 1.2 to 4 nM; DAS181 protein per unit of activity ([8]; pH 5.5): 0.77 µg; specific activity ([8]; pH 5.5, one unit releases 10 nmol MU in 10 minutes): 1,300 U/mg protein; EC50 [2, 20]: 4 ± 1.6 nM; EC50 [3, 21]: 1.2 ± 0.9 nM; potency in words [9]: low micromolar potency; EC50 [4, 22]: 3.6 ± 1.5 nM; EC50 [10, 23]: 3.2 ± 1 nM; EC50 [10, 24]: 4 ± 1.2 nM; EC50 [10, 25]: 4 ± 1.6 nM; EC50 [11, 23]: 2 ± 0.1 nM; EC50 [11, 24]: 4.3 ± 0.4 nM; EC50 [11, 25]: 3.6 ± 1.5 nM; EC50 [12, 23]: 1 ± 0.1 nM; EC50 [12, 24]: 3.6 ± 1.5 nM; EC50 [12, 25]: 1.2 ± 0.9 nM; EC50 [13, 23]: 2.7 ± 0.4 nM; EC50 [13, 24]: 3.4 ± 1 nM; EC50 [13, 25]: 2.6 ± 1.2 nM"
